Literature values as cited in patent US20070154567A1, “Use of mercury to treat cancer” (priority 2006, published 2007).

Tested on: mammary and sarcoma tumor growth in seeded wounds
Settings: 0.2% w/v solution administered to the wound site, mice; cited from earlier work

Q: With `[Cl][Hg][Cl]` [mercuric chloride] as the compound, how does the “mammary and sarcoma tumor growth in seeded wounds” value read?
A: Its value is “reduce”.
